As a reminder, the melting point is the temperature of the solid-liquid transition.

Results on 6 molecules are retold here after publication PMC11224556, “Next-generation of BBQ analogues that selectively target breast cancer” (Frontiers in Chemistry, 2024).

A short description of series [1]: Solubility in the compound testing media. Format: physicochemical.
Series [2] has as its target T1, AhR (Homo sapiens, UniProt P35869).
T1 construct: This cell line stably expresses the secreted Lucia luciferase reporter gene under the control of a minimal promoter; host or cells: HT29-Lucia AhR reporter cells
T1 sequence (P35869 11-848): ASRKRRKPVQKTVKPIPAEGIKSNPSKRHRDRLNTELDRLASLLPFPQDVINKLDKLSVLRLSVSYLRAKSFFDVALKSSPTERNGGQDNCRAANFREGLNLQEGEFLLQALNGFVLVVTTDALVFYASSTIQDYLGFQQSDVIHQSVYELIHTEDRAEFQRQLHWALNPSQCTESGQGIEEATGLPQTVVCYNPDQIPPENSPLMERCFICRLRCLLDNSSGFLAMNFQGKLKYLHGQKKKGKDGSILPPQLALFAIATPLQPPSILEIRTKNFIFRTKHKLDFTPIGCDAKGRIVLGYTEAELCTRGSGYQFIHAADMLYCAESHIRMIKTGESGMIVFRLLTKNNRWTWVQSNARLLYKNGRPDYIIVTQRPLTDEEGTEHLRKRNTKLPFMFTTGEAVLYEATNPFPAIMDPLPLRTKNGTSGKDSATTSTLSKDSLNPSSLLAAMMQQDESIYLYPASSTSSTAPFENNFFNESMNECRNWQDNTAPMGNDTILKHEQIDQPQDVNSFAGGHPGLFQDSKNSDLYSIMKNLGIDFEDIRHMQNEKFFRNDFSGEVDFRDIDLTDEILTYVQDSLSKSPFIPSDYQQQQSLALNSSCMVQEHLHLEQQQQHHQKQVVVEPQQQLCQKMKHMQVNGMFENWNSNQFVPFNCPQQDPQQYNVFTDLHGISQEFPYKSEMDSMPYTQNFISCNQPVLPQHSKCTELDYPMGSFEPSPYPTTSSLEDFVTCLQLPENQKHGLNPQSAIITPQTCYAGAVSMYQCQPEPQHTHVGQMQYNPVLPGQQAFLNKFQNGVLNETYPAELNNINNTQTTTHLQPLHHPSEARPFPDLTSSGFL
Kind of series: AhR transcription reporter assay (HT29-Lucia AhR cells). In kind it is cell-based. Conditions: 24 h. An excerpt:
Our previous studies have shown that the activity of NAP-6 (2) and 10-Cl-BBQ (3) required the activation of the AhR pathway and the induction of CYP1 family of phase I metabolising enzymes ([Gilbert et al., 2020]; [Baker et al., 2021a]). Therefore, we sought to determine the activation of AhR using a stable AhR reporter assay in HT29-Lucia™ AhR cells, in the presence of each BBQ analogue (Figure 3). Activation of the AhR was indicated by enhanced luminescence caused by the translocation of the AhR to the nucleus of the cell and interaction with the xenobiotic response elements imbedded in the luciferase gene.
Stock solutions were prepared as follows and stored as 20 mM DMSO solutions at −20 °C. All cell lines were cultured in a humidified atmosphere 5% CO2 at 37 °C. The cancer cell lines were maintained in Dulbecco’s modified Eagle’s medium (DMEM) (Trace Biosciences, Australia) supplemented with 10% foetal bovine serum (FBS), 10 mM sodium bicarbonate, penicillin (100 IU/mL), streptomycin (100 μg/mL), and glutamine (4 mM). The non-cancer MCF10A cell line was cultured in DMEM:F12 (1:1) cell culture media, 5% heat inactivated horse serum, supplemented with penicillin (50 IU/mL), streptomycin (50 μg/mL), 20 mM Hepes, L-glutamine (2 mM), epidermal growth factor (20 ng/mL), hydrocortisone (500 ng/mL), cholera toxin (100 ng/mL), and insulin (10 μg/mL). The AhR reporter cell line HT29-Lucia™ (Invivogen, United States) was maintained in DMEM supplemented with 10% heat inactivated FBS, L-glutamine (2 mM), penicillin (100 IU/mL), streptomycin (100 μg/mL), 100 μg/mL Normocin™, and 100 μg/mL of the selective antibiotic Zeocin™. All cell lines were purchased from the American Type Culture Collection (ATCC), except for A2780 and A431 which were from the European Collection of Authenticated Cell Cultures (ECACC), and SJ-G2 cell line which was from Dr Mary Danks, St Jude Children’s Research hospital, Memphis, TN.
The activity of the AhR signalling pathway was measured using the stably transfected AhR cell line, HT29-Lucia™ (Invivogen, United States). This cell line stably expresses the secreted Lucia luciferase reporter gene under the control of a minimal promoter coupled with the human CYP1A1 gene entire regulatory sequence, containing six DREs. The Lucia luciferase reporter protein is readily measurable in the cell culture supernatant using QUANTI-Luc™. For the determination of AhR activity, 4 × 10^4 cells in 180 μL was plated into each well of a 96 well micro-titre plate in the absence of antibiotics and allowed to culture for 24 h prior to the addition of test compounds in a volume of 20 μL. At the indicated time, 20 μL of cell supernatant was transferred to a white luminometer plate and 50 µL of QUANTI-Luc was added immediately prior to reading the luminescence using a GloMax Explorer Luminescence Plate Reader. The promoter activity was conducted in duplicate and the values expressed as fold-change relative to DMSO (0.1%) treated cells. The AhR ligand, FICZ (6-formylindolo[3,2-b]carbazole) and AhR inhibitor CH223191 were included for study as positive and negative controls, respectively. […] Results are presented as the mean ± standard error of the mean (SEM) of analysis conducted in duplicate and repeated on three separate occasions.

Series [3] concerns CYP1B1 mRNA. Nature of the series: Gene expression analysis (qPCR) in MDA-MB-468 cells. Format: cell-based, human. Conditions: 1.0 μM, 6 h. As to the method: (§1) These analogues were specifically chosen because they were synthesised without the production of regioisomers, their structural differences are small while their biological differences are large, c.f. […] Neither analogue altered the expression of SULT1A1 (Figure 4D).
(§2) Gene expression was examined in MDA-MB-468 cells following 6 h treatment. Total RNA was extracted using the RNeasy Mini Kit (Qiagen) according to the manufacturer’s instructions. One µg of RNA was reverse transcribed using the QuanitTect Reverse Transcription Kit (Qiagen) according to the manufacturer’s instructions. Rotor-Gene SYBR Green PCR Kit (Qiagen) was used to perform qPCR on a Rotor-Gene 3,000 Thermo-Cycler Instrument using β2-microglobulin as a housekeeping gene (Qiagen). The primer sequences were purchased from Qiagen as follows: AhR (QT02422938), CYP1A1 (QT00012341), CYP1B1 (QT00209496), SULT1A1 (QT01665489), and β2M (QT00088935). HotStar Taq activation (95 °C for 5 min) was followed by 40 cycles of denaturation (95 °C for 5 s), and annealing/extension (60 °C for 10 s). The comparative Ct value method was used for data analysis. Results are presented as the mean ± standard error of the mean (SEM) of analysis conducted in duplicate and repeated on two separate occasions. Significant test results were determined using T-test analysis at p < 0.01 with a two tail distribution.
(Quantitative PCR measures a nucleic acid by following its amplification.)

In series [4] the test system is CYP1A1 mRNA. Described as above. Format: cell-based, human. Conditions: 1.0 μM, 6 h. As to the method:
as §1, §2

Series [5] deals with MCF10A normal breast cells. Kind of series: MTT growth inhibition with CYP1 (αNF) or SULT1A1 (quercetin) inhibitor. In kind it is cell-based, human. Conditions: 3 and 5 at 0.1 µM, αNF 10 µM, quercetin 5 µM, 72 h (Supp Figure 1). As for the experimental part:
This analysis confirms that both CYP1 and SULT1A1, activity is needed to induce the growth inhibitory effect of the BBQ analogue.
Cells in logarithmic growth were transferred to 96-well plates. Cytotoxicity was determined by plating cells in duplicate in 100 μL medium at a density of 2,500–4,000 cells/well in 96 well plates. On day 0, (24 h after plating) when the cells were in logarithmic growth 100 μL medium with or without the test agent was added to each well. After 72 h drug exposure growth inhibitory effects were evaluated using the MTT (3-[4,5-dimethylthiazol-2-yl]-2,5-diphenyltetrazolium bromide) assay with absorbance read at 540 nm. An eight-point dose response curve was produced, using MS Excel software. From these dose-response curves, the GI50 value was calculated, representing the drug concentration at which cell growth is 50% inhibited based on the difference between the optical density values on day 0 and those at the end of drug exposure ([Bradshaw et al., 2008]; [Zhang et al., 2009]). Each data point was conducted in duplicate and the mean ± S.E.M. calculated from four to five replicates (n = 4 or 5), which were performed on separate occasions and separate cell line passages. Where shown, significant test results were determined using T-test analysis at p < 0.01 and p < 0.05 with a two tail distribution.
Supp Figure 1. CYP1 and SULT1A1 inhibition ameliorates the effect of 3 and 5. Growth inhibition (72 h, MTT assay) of 3 and 5 (0.1 µM) in the presence of the CYP1 family inhibitor, α-naphthoflavone (αNF, 10 µM) and SULT1A1 inhibitor, quercetin (qu, 5 µM) in (A) MDA-MB-468 breast cancer cells and (B) MCF10A normal breast cells. Significant differences are at the P < 0.01 ** level, using a paired T-test with a two-tailed distribution.

Series [6] concerns broad panel of cancer cell lines and non-cancer breast cell line MCF10A. Conditions: ref Gilbert et al., 2017; Gilbert et al., 2020; cited from earlier work.

`O=c1c2cccc3cccc(c32)c2nc3c(Cl)cc(Cl)cc3n12` [Compound 6, 10,12-Dichloro-7H-benzo[de]benzo[4,5]imidazo[2,1-a]isoquinolin-7-one] returned a melting point of 292 to 294 °C. The “solubility in the compound testing media” value in series [1] is reported as “insoluble”.
For the molecule “6-formylindolo[3,2-b]carbazole [FICZ, reference compound]”, the “AhR activation, Fold Reporter Induction” value in series [2] (0.5 μM, positive control) turned out to be 2.7 fold. Also, the “CYP1B1 Fold change (mRNA vs DMSO control)” value in series [3] is 3.7 fold. For the same molecule, the “CYP1A1 Fold change (mRNA vs DMSO control)” value in series [4] worked out at 19 fold.
For `O=c1cc(-c2ccccc2)oc2c1ccc1ccccc12` [α-naphthoflavone, reference compound], the “effect on growth in normal MCF10A cells” value in series [5] is “Neither 3, 5, αNF, or quercetin affected growth”.
Take `N#C/C(=C\c1ccc[nH]1)c1ccc(Cl)c(Cl)c1` [Compound 1, (Z)-2-(3,4-dichlorophenyl)-3-(1H-pyrrol-2-yl)acrylonitrile]: the “selective targeting of certain breast cancer cell lines compared with normal breast cells or other tumour types (fold)” value in series [6] is “more than 500 fold”.
Turning to `O=c1c(O)c(-c2ccc(O)c(O)c2)oc2cc(O)cc(O)c12` [quercetin, reference compound], in series [5], the “effect on growth in normal MCF10A cells” value is “Neither 3, 5, αNF, or quercetin affected growth”.
For the molecule `Cc1ccccc1N=Nc1ccc(NC(=O)c2ccnn2C)c(C)c1` [CH223191, reference compound], the “AhR activation, Fold Reporter Induction” value in series [2] (2.5 μM, negative control) was determined as 0.7 fold.
